Test results reported in ChEMBL document CHEMBL3885861, “Open TG-GATES”.

Organism: Rattus norvegicus
Test: Open TG-GATES - Regimen: Daily Repeat
Type: toxicity, organism-based, Sprague-Dawley
Set-up: regimen Daily Repeat, gender Male, age 6 weeks
Conditions: in vivo, po, 100 mg/kg, […], route gavage, dose level Low; for KIDNEY_L / KIDNEY_R / KIDNEY_TOTAL: tissue Kidney; for LIVER: tissue Liver; for A/G / ALP / ALT / AST / BUN / CRE / Ca / Cl / DBIL / GLC / IP / K / LDH / Na / PL / RALB / TBIL / TC / TG / TP / gamma-GTP: tissue Plasma

SMILES: CNC(=C[N+](=O)[O-])NCCSCc1ccc(CN(C)C)o1 [RANITIDINE]
- Lym (tissue Blood, time 28 day): 82.6%
- MCH (tissue Blood, time 28 day): 19.8 pg
- MCHC (tissue Blood, time 28 day): 34.9%
- MCV (tissue Blood, time 28 day): 56.5 fL
- Mono (tissue Blood, time 28 day): 1.8%
- Neu (tissue Blood, time 28 day): 12.8%
- PT (tissue Blood, time 28 day): 12.2 s
- Plat (tissue Blood, time 28 day): 103.7 x10_4/uL
- RBC (tissue Blood, time 28 day): 797.4 x10_4/ul
- Ret (tissue Blood, time 28 day): 1.8%
- WBC (tissue Blood, time 28 day): 119.7 x10_2/uL
- KIDNEY_L (time 7 day): 1.1 g
- KIDNEY_R (time 7 day): 1.1 g
- KIDNEY_TOTAL (time 7 day): 2.2 g
- KIDNEY_L (time 14 day): 1.2 g
- KIDNEY_R (time 14 day): 1.2 g
- KIDNEY_TOTAL (time 14 day): 2.4 g
- KIDNEY_L (time 28 day): 1.4 g
- KIDNEY_R (time 28 day): 1.3 g
- KIDNEY_TOTAL (time 28 day): 2.7 g
- LIVER (time 7 day): 12.5 g
- LIVER (time 14 day): 14.7 g
- LIVER (time 28 day): 15.5 g
- A/G (time 7 day): 1.5
- ALP (time 7 day): 852.4 IU/L
- ALT (time 7 day): 32.4 IU/L
- AST (time 7 day): 61.2 IU/L
- BUN (time 7 day): 17.8 mg/dL
- CRE (time 7 day): 0.4 mg/dL
- Ca (time 7 day): 10.8 mg/dL
- Cl (time 7 day): 103 meq/L
- DBIL (time 7 day): 0.1 mg/dL
- GLC (time 7 day): 223.6 mg/dL
- IP (time 7 day): 7.9 mg/dL
- K (time 7 day): 3.9 meq/L
- LDH (time 7 day): 174.4 IU/L
- Na (time 7 day): 139.6 meq/L
- PL (time 7 day): 149.2 mg/dL
- RALB (time 7 day): 3.4 g/dL
- TBIL (time 7 day): 0.2 mg/dL
- TC (time 7 day): 73.2 mg/dL
- TG (time 7 day): 125.4 mg/dL
- TP (time 7 day): 5.6 g/dL
- gamma-GTP (time 7 day): 1.2 IU/L
- A/G (time 14 day): 1.4
- ALP (time 14 day): 793 IU/L
- ALT (time 14 day): 35.6 IU/L
- AST (time 14 day): 63.2 IU/L
- BUN (time 14 day): 16.4 mg/dL
- CRE (time 14 day): 0.5 mg/dL
- Ca (time 14 day): 10.7 mg/dL
- Cl (time 14 day): 103.6 meq/L
- DBIL (time 14 day): 0.1 mg/dL
- GLC (time 14 day): 190.4 mg/dL
- IP (time 14 day): 6.9 mg/dL
- K (time 14 day): 3.9 meq/L
- LDH (time 14 day): 180 IU/L
- Na (time 14 day): 142 meq/L
- PL (time 14 day): 159.4 mg/dL
- RALB (time 14 day): 3.5 g/dL
- TBIL (time 14 day): 0.2 mg/dL
- TC (time 14 day): 75.6 mg/dL
- TG (time 14 day): 152 mg/dL
- TP (time 14 day): 6 g/dL
- gamma-GTP (time 14 day): 1.2 IU/L
- A/G (time 28 day): 1.3
- ALP (time 28 day): 621.4 IU/L
- ALT (time 28 day): 32.8 IU/L
- AST (time 28 day): 63.4 IU/L
- BUN (time 28 day): 17.2 mg/dL
- CRE (time 28 day): 0.5 mg/dL
- Ca (time 28 day): 10.3 mg/dL
- Cl (time 28 day): 103.2 meq/L
- DBIL (time 28 day): 0.094 mg/dL
- GLC (time 28 day): 220.2 mg/dL
- IP (time 28 day): 6.6 mg/dL
- K (time 28 day): 3.6 meq/L
- LDH (time 28 day): 164.4 IU/L
- Na (time 28 day): 141.4 meq/L
- PL (time 28 day): 138.4 mg/dL
- RALB (time 28 day): 3.5 g/dL
- TBIL (time 28 day): 0.2 mg/dL
- TC (time 28 day): 65.2 mg/dL
- TG (time 28 day): 107.2 mg/dL
- TP (time 28 day): 6.3 g/dL
- gamma-GTP (time 28 day): 1.2 IU/L
